Test results: patent EP0571593B1, “NEW NON IONIC IODIZED AGENTS FOR X-RAY CONTRASTING, METHOD FOR PREPARING THEM AND GALENICAL COMPOSITIONS CONTAINING THEM” (CENTRO INVESTIGACION JUSTESA IMAGEN S.A., priority 1991, dated 1993)

Key:
[1] = test system: rat; test: ED50 after intracisternal (i.cis.) administration; assay type: in vivo
[2] = Osmolality of aqueous solutions; assay type: physicochemical
[3] = Viscosity of aqueous solutions; assay type: physicochemical
[4] = test system: Sprague-Dawley rats; test: Intravenous toxicity, lethal dose for 50% of the animals; assay type: in vivo; conditions: i.v. via the caudal vein at 2.2ml/min, mortality during seven days
[5] = Iodine content; assay type: physicochemical; conditions: for Iodine Content (%): comparison table with IOTROLAN

Compound	Osmolality mosm/kg at 300mg I/ml [2]	Viscosity mPa s (30°C) at 300mg I/ml [3]	% Iodine [5]	ED50, rat i.cis. (mg I/kg) [1]	Osmolality (mOsm/kg at 300 mg I/ml) 37°C [2]	Viscosity (mPa.S at 300 mg I/ml) 37°C [3]	LD50, rat i.v. (g I/kg) [4]	Iodine Content (%) [5]
COCC(=O)Nc1c(I)c(C(=O)NCC(O)CO)c(I)c(C(=O)N(C)CC(=O)N(C)c2c(I)c(C(=O)NC(CO)C(O)CO)c(I)c(C(=O)NC(CO)C(O)CO)c2I)c1I (centres unmarked) [EXAMPLE 9, N,N'-bis-(1-hydroxymethyl-2,3-dihydroxypropyl)-5-{3-[N-(2,3-dihydroxypropyl)carbamoyl]-5-methoxyacetamido-2,4,6-triiodobenzoyl-N-methylaminoacetyl-N-methylamino}-2,4,6-tri-iodoisophthalamide]	226 mosm/kg	8,2 mPa s	49,6%	350 mg I/kg	226 mOsm/kg	8,2 mPa.S	20-25 g I/kg	49,6%
CN(CC(=O)N(C)c1c(I)c(C(=O)NCC(O)CO)c(I)c(C(=O)NCC(O)CO)c1I)C(=O)c1c(I)c(NC(=O)CO)c(I)c(C(=O)NCC(O)CO)c1I (centres unmarked) [EXAMPLE 11, N,N'-bis-(2,3-dihydroxypropyl)-5-{3-[N-(2,3-dihydroxypropyl)carbamoyl]-5-hydroxyacetamido-2,4,6-triiodobenzoyl-N-methylaminoacetyl-N-methylamino}-2,4,6-triiodo isophthalamide]	152 mosm/kg	6,9 mPa s	52%	500 mg I/kg	152 mOsm/kg	7,0 mPa.S	23 g I/kg	52,1%
CC(=O)Nc1c(I)c(C(=O)NCC(O)CO)c(I)c(C(=O)N(CC(=O)Nc2c(I)c(C(=O)NCC(O)CO)c(I)c(C(=O)NCC(O)CO)c2I)CC(O)CO)c1I (centres unmarked) [EXAMPLE 36, N,N-bis-(2,3-dihydroxypropyl)-5-{3-[N-(2,3-dihydroxypropyl)carbamoyl]-5-acetamido-2,4,6-triiodobenzoyl-N-(2,3-dihidroxypropyl)aminoacetamido}-2,4,6-triiodoisophthalamide]	125 mosm/kg	8,8 mPa s	51%	550 mg I/kg	125 mOsm/kg	8,3-8,8 mPa.S	25-27 g I/kg	51,0%
COCC(=O)Nc1c(I)c(C(=O)NCC(O)CO)c(I)c(C(=O)N(CC(=O)N(C)c2c(I)c(C(=O)NCC(O)CO)c(I)c(C(=O)NCC(O)CO)c2I)CC(O)COC)c1I (centres unmarked) [EXAMPLE 39, N,N'-bis-(2,3-dihydroxypropyl)-5-{3-[N-(2,3-dihydroxypropyl)carbamoyl]-5-methoxyacetamido-2,4,6-triiodobenzoyl--N-(2-hydroxy-3-methoxypropyl)aminoacetyl-N-methylamino} -2,4,6-triiodoisophthalamide]	190 mosm/kg	9,6 mPa s	49,1%	–	–	–	–	–
CC(=O)Nc1c(I)c(C(=O)NCC(O)CO)c(I)c(C(=O)N(C)CC(=O)N(C)c2c(I)c(C(=O)N(CCO)CC(O)CO)c(I)c(C(=O)N(CCO)CC(O)CO)c2I)c1I (centres unmarked) [EXAMPLE 42, N,N'-bis-(2-hydroxyethyl)-N,N'-bis-(2,3-dihydroxypropyl)-5-{3-[N-(2,3-dihydroxypropyl)carbamoyl]-5-acetamido-2,4,6-triiodobenzoyl-N-methylaminoacetyl-N-methylamino}-2,4,6-triiodoisophthalamide]	180 mosm/kg	8,8 mPa s	49,6%	–	–	–	–	–
CN(C(=O)CC(=O)N(C)c1c(I)c(C(=O)NC(CO)C(O)CO)c(I)c(C(=O)NC(CO)C(O)CO)c1I)c1c(I)c(C(=O)NC(CO)C(O)CO)c(I)c(C(=O)NC(CO)C(O)CO)c1I (stereo not drawn) [IOTROLAN, N,N'-dimethyl-N,N'-bis[3,5-(l-hydroxymethyl-2,3-dihydroxy-propyl-carbamoyl) -2,4,6-triiodo-phenyl]-diamide of malonic acid, reference compound]	–	–	–	315 mg I/kg	320 mOsm/kg	8,1-9,2 mPa.S	25-28 g I/kg	47%

More lines, main results first:

Osmolality mosm/kg at 300mg I/ml [2]	Viscosity mPa s (30°C) at 300mg I/ml [3]	% Iodine [5]	Compound	ED50, rat i.cis. (mg I/kg) [1]	Osmolality (mOsm/kg at 300 mg I/ml) 37°C [2]	Viscosity (mPa.S at 300 mg I/ml) 37°C [3]	LD50, rat i.v. (g I/kg) [4]	Iodine Content (%) [5]
214 mosm/kg	8,2 mPa s	49,1%	COCC(=O)N(CCO)c1c(I)c(C(=O)NCC(O)CO)c(I)c(C(=O)N(C)CC(=O)N(CCO)c2c(I)c(C(=O)NCC(O)CO)c(I)c(C(=O)NCC(O)CO)c2I)c1I (centres unmarked) [EXAMPLE 35, N,N'-bis-(2,3-dihydroxypropyl)-5-{3-[N-(2,3-dihydroxypropyl)carbamoyl]-5-methoxyacetyl-N-(2-hydroxyethyl)amino-2,4,6-triiodobenzoyl-N-methylaminoacetyl-N-(2-hydroxyethyl)amino}-2,4,6 triiodoisophthalamide]	–	–	–	–	–
130 mosm/kg	9,9 mPa s	52,6%	CC(=O)Nc1c(I)c(C(=O)NCC(O)CO)c(I)c(C(=O)N(C)CC(=O)N(C)c2c(I)c(C(=O)NCC(O)CO)c(I)c(C(=O)NCC(O)CO)c2I)c1I (centres unmarked) [EXAMPLE 37, N,N'-bis-(2,3-dihydroxypropyl)-5-{3-[N-(2,3-dihydroxypropyl)carbamoyl]-5-acetamido-2,4,6-triiodobenzoyl-N-methylacetyl-N-methylamino}-2,4,6-triiodoisophthalamide]	–	–	–	–	–
155 mosm/kg	9,1 mPa s	50,6%	CC(=O)Nc1c(I)c(C(=O)NCC(O)CO)c(I)c(C(=O)N(C)CC(=O)N(C)c2c(I)c(C(=O)NC(CO)C(O)CO)c(I)c(C(=O)NC(CO)C(O)CO)c2I)c1I (centres unmarked) [EXAMPLE 38, N,N'-bis-(1-hydroxymethyl-2,3-dihydroxypropyl)-5-{3-[N-(2,3-dihydroxypropyl]carbamoyl]-5-acetamido-2,4,6-triiodobenzoyl -N-methylacetyl-N-methylamino}-2,4,6-triiodoisophthalamide]	–	–	–	–	–
160 mosm/kg	10,2 mPa s	49,1%	COCCN(C(=O)CO)c1c(I)c(C(=O)NCC(=O)N(CCOC)c2c(I)c(C(=O)NCC(O)CO)c(I)c(C(=O)NCC(O)CO)c2I)c(I)c(C(=O)NCC(O)CO)c1I (centres unmarked) [EXAMPLE 40, N,N'-bis-(2,3-dihydroxypropyl)-5-{3-[N-(2,3-dihydroxypropyl)carbamoyl]-5-hydroxyacetyl-N-(2-methoxyethyl)amino-2,4,6-triiodobenzoylaminoacetyl-N-(2-methoxyethyl)amino} -2,4,6-triiodoisophthalamide]	–	–	–	–	–
135 mosm/kg	9,0 mPa s	50,0%	COCC(=O)Nc1c(I)c(C(=O)N(C)CC(=O)N(C)c2c(I)c(C(=O)NCC(O)CO)c(I)c(C(=O)NCC(O)CO)c2I)c(I)c(C(=O)N(CCO)CC(O)CO)c1I (centres unmarked) [EXAMPLE 41, N,N'-bis-(2,3-dihydroxypropyl)-5-{3-[N-(2-hydroxyethyl)-N-(2,3-dihydroxypropyl)carbamoyl]-5-methoxyacetamido-2,4,6-triiodobenzoyl-N-methylaminoacetyl-N-methylamino} --2,4,6-triiodoisophthalamide]	–	–	–	–	–
